# Laboratory results as given in the supplement of paper PMC10307832.
# Legend:
# Test in all cases: relative viability (nuclei count vs DMSO), 5 days (fraction); higher = more cells survive
# NCI-H1666 = tested on: NCI-H1666
# How it was run: (§1)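 Relative viability was taken as the ratio of nuclei in treated wells to nuclei in vehicle wells. Lung cancer cell lines in 1536-well plates received compounds by pin tool one day after seeding, either one drug alone or a fixed anchor-drug dose plus five library-drug doses (not always all listed) in √10 steps. Nuclei were counted on 4× images after 5 days of treatment, and values are medians of duplicate plates.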
# NCI-H322M = tested on: NCI-H322M
# How it was run: as §1
# NCI-H1792 = tested on: NCI-H1792
# How it was run: as §1
# NCI-H1944 = tested on: NCI-H1944
# How it was run: as §1
# HCC-827 = tested on: HCC-827
# How it was run: as §1
# RERF-LC-KJ = tested on: RERF-LC-KJ
# How it was run: as §1
# NCI-H1793 = tested on: NCI-H1793
# How it was run: as §1
# ChaGo-K-1 = tested on: ChaGo-K-1
# How it was run: as §1
# NCI-H520 = tested on: NCI-H520
# How it was run: as §1
# LU99A = tested on: LU99A
# How it was run: as §1
# NCI-H2347 = tested on: NCI-H2347
# How it was run: as §1
# NCI-H1395 = tested on: NCI-H1395
# How it was run: as §1
# CAL-12T = tested on: CAL-12T
# How it was run: as §1
# NCI-H2126 = tested on: NCI-H2126
# How it was run: as §1
# SK-LU-1 = tested on: SK-LU-1
# How it was run: as §1
# NCI-H1755 = tested on: NCI-H1755
# How it was run: as §1
# NCI-H3122 = tested on: NCI-H3122
# How it was run: as §1
# LXF-289 = tested on: LXF-289
# How it was run: as §1
# HCC-44 = tested on: HCC-44
# How it was run: as §1
smiles,measurement,setting,value
CN1CCN(CCOc2cc(OC3CCOCC3)c3c(Nc4c(Cl)ccc5c4OCO5)ncnc3c2)CC1 [Saracatinib] + CC1(C)CCC(c2ccc(Cl)cc2)=C(CN2CCN(c3ccc(C(=O)NS(=O)(=O)c4ccc(N[C@H](CCN5CCOCC5)CSc5ccccc5)c(S(=O)(=O)C(F)(F)F)c4)cc3)CC2)C1 [Navitoclax] (partner 0.5 µM),relative viability,NCI-H1666; first compound 0.02 µM,1.04
same,relative viability,NCI-H1666; first compound 0.2 µM,0.928
same,relative viability,NCI-H1666; first compound 0.6325 µM,1.06
same,relative viability,NCI-H1666; first compound 2 µM,0.667
same,relative viability,NCI-H322M; first compound 0.02 µM,1.28
same,relative viability,NCI-H322M; first compound 0.2 µM,1.29
same,relative viability,NCI-H322M; first compound 0.6325 µM,1.31
same,relative viability,NCI-H322M; first compound 2 µM,1.13
same,relative viability,NCI-H1792; first compound 0.02 µM,0.635
same,relative viability,NCI-H1792; first compound 0.2 µM,0.489
same,relative viability,NCI-H1792; first compound 0.6325 µM,0.723
same,relative viability,NCI-H1792; first compound 2 µM,0.583
same,relative viability,NCI-H1944; first compound 0.02 µM,1.14
same,relative viability,NCI-H1944; first compound 0.6325 µM,0.974
same,relative viability,NCI-H1944; first compound 2 µM,0.718
same,relative viability,HCC-827; first compound 0.02 µM,0.979
same,relative viability,HCC-827; first compound 0.2 µM,0.808
same,relative viability,HCC-827; first compound 0.6325 µM,0.368
same,relative viability,HCC-827; first compound 2 µM,0.137
same,relative viability,RERF-LC-KJ; first compound 0.02 µM,0.817
same,relative viability,RERF-LC-KJ; first compound 0.2 µM,1.17
same,relative viability,RERF-LC-KJ; first compound 0.6325 µM,0.959
same,relative viability,RERF-LC-KJ; first compound 2 µM,0.934
same,relative viability,NCI-H1793; first compound 0.02 µM,0.456
same,relative viability,NCI-H1793; first compound 0.2 µM,0.402
same,relative viability,NCI-H1793; first compound 0.6325 µM,0.401
same,relative viability,NCI-H1793; first compound 2 µM,0.201
same,relative viability,ChaGo-K-1; first compound 0.02 µM,1.15
same,relative viability,ChaGo-K-1; first compound 0.2 µM,0.68
same,relative viability,ChaGo-K-1; first compound 0.6325 µM,1.21
same,relative viability,ChaGo-K-1; first compound 2 µM,0.542
same,relative viability,NCI-H520; first compound 0.02 µM,1.1
same,relative viability,NCI-H520; first compound 0.2 µM,0.993
same,relative viability,NCI-H520; first compound 0.6325 µM,0.753
same,relative viability,NCI-H520; first compound 2 µM,0.583
same,relative viability,LU99A; first compound 0.02 µM,0.818
same,relative viability,LU99A; first compound 0.2 µM,0.629
same,relative viability,LU99A; first compound 0.6325 µM,0.847
same,relative viability,LU99A; first compound 2 µM,0.865
same,relative viability,NCI-H2347; first compound 0.02 µM,0.725
same,relative viability,NCI-H2347; first compound 0.2 µM,0.686
same,relative viability,NCI-H2347; first compound 0.6325 µM,0.862
same,relative viability,NCI-H2347; first compound 2 µM,0.599
same,relative viability,NCI-H1395; first compound 0.02 µM,1.37
same,relative viability,NCI-H1395; first compound 0.2 µM,0.902
same,relative viability,NCI-H1395; first compound 0.6325 µM,1.09
same,relative viability,NCI-H1395; first compound 2 µM,1.08
same,relative viability,CAL-12T; first compound 0.02 µM,1.17
same,relative viability,CAL-12T; first compound 0.2 µM,1.29
same,relative viability,CAL-12T; first compound 0.6325 µM,1.42
same,relative viability,CAL-12T; first compound 2 µM,1.27
same,relative viability,NCI-H2126; first compound 0.02 µM,0.876
same,relative viability,NCI-H2126; first compound 0.2 µM,0.747
same,relative viability,NCI-H2126; first compound 0.6325 µM,0.887
same,relative viability,NCI-H2126; first compound 2 µM,0.684
same,relative viability,SK-LU-1; first compound 0.02 µM,0.752
same,relative viability,SK-LU-1; first compound 0.2 µM,0.535
same,relative viability,SK-LU-1; first compound 0.6325 µM,0.527
same,relative viability,SK-LU-1; first compound 2 µM,0.412
same,relative viability,NCI-H1755; first compound 0.02 µM,0.981
same,relative viability,NCI-H1755; first compound 0.2 µM,0.681
same,relative viability,NCI-H1755; first compound 0.6325 µM,0.874
same,relative viability,NCI-H1755; first compound 2 µM,0.588
same,relative viability,NCI-H3122; first compound 0.02 µM,1.02
same,relative viability,NCI-H3122; first compound 0.6325 µM,0.942
same,relative viability,NCI-H3122; first compound 2 µM,0.838
same,relative viability,LXF-289; first compound 0.02 µM,0.979
same,relative viability,LXF-289; first compound 0.2 µM,0.846
same,relative viability,LXF-289; first compound 0.6325 µM,0.993
same,relative viability,LXF-289; first compound 2 µM,0.964
same,relative viability,HCC-44; first compound 0.02 µM,1.06
same,relative viability,HCC-44; first compound 0.2 µM,0.829
same,relative viability,HCC-44; first compound 0.6325 µM,1.08
same,relative viability,HCC-44; first compound 2 µM,1.04
Cc1csc(=NC2CCCCC2)n1/N=C/c1ccc(O)c(O)c1O [MIM1] + CC1(C)CCC(c2ccc(Cl)cc2)=C(CN2CCN(c3ccc(C(=O)NS(=O)(=O)c4ccc(N[C@H](CCN5CCOCC5)CSc5ccccc5)c(S(=O)(=O)C(F)(F)F)c4)cc3)CC2)C1 [Navitoclax] (partner 0.5 µM),relative viability,NCI-H1666; first compound 0.2 µM,1
same,relative viability,NCI-H1666; first compound 0.6325 µM,1.15
same,relative viability,NCI-H1666; first compound 2 µM,1.11
same,relative viability,NCI-H1666; first compound 6.325 µM,0.727
same,relative viability,NCI-H1666; first compound 20 µM,0.667
same,relative viability,NCI-H322M; first compound 0.2 µM,1.13
same,relative viability,NCI-H322M; first compound 0.6325 µM,1.29
same,relative viability,NCI-H322M; first compound 2 µM,1.31
same,relative viability,NCI-H322M; first compound 6.325 µM,1.13
same,relative viability,NCI-H322M; first compound 20 µM,1.37
same,relative viability,NCI-H1792; first compound 0.2 µM,0.59
same,relative viability,NCI-H1792; first compound 0.6325 µM,0.484
same,relative viability,NCI-H1792; first compound 2 µM,0.559
same,relative viability,NCI-H1792; first compound 6.325 µM,0.501
same,relative viability,NCI-H1792; first compound 20 µM,0.245
same,relative viability,NCI-H1944; first compound 0.2 µM,0.985
same,relative viability,NCI-H1944; first compound 0.6325 µM,1.04
same,relative viability,NCI-H1944; first compound 2 µM,0.845
same,relative viability,NCI-H1944; first compound 6.325 µM,0.938
same,relative viability,NCI-H1944; first compound 20 µM,1.11
same,relative viability,HCC-827; first compound 0.2 µM,0.961
same,relative viability,HCC-827; first compound 0.6325 µM,1.01
same,relative viability,HCC-827; first compound 2 µM,0.977
same,relative viability,HCC-827; first compound 6.325 µM,0.39
same,relative viability,HCC-827; first compound 20 µM,0.696
same,relative viability,RERF-LC-KJ; first compound 0.2 µM,0.848
same,relative viability,RERF-LC-KJ; first compound 0.6325 µM,0.725
same,relative viability,RERF-LC-KJ; first compound 2 µM,0.534
same,relative viability,RERF-LC-KJ; first compound 6.325 µM,0.568
same,relative viability,RERF-LC-KJ; first compound 20 µM,0.245
same,relative viability,NCI-H1793; first compound 0.2 µM,0.438
same,relative viability,NCI-H1793; first compound 0.6325 µM,0.546
same,relative viability,NCI-H1793; first compound 2 µM,0.436
same,relative viability,NCI-H1793; first compound 6.325 µM,0.475
same,relative viability,NCI-H1793; first compound 20 µM,0.47
same,relative viability,ChaGo-K-1; first compound 0.2 µM,1.14
same,relative viability,ChaGo-K-1; first compound 0.6325 µM,0.741
same,relative viability,ChaGo-K-1; first compound 2 µM,0.943
same,relative viability,ChaGo-K-1; first compound 6.325 µM,0.717
same,relative viability,ChaGo-K-1; first compound 20 µM,0.31
same,relative viability,NCI-H520; first compound 0.2 µM,1.08
same,relative viability,NCI-H520; first compound 0.6325 µM,1.06
same,relative viability,NCI-H520; first compound 2 µM,1.06
same,relative viability,NCI-H520; first compound 6.325 µM,0.832
same,relative viability,NCI-H520; first compound 20 µM,0.517
same,relative viability,LU99A; first compound 0.2 µM,0.931
same,relative viability,LU99A; first compound 0.6325 µM,0.817
same,relative viability,LU99A; first compound 2 µM,0.781
same,relative viability,LU99A; first compound 6.325 µM,0.836
same,relative viability,LU99A; first compound 20 µM,0.18
same,relative viability,NCI-H2347; first compound 0.2 µM,0.661
same,relative viability,NCI-H2347; first compound 0.6325 µM,0.776
same,relative viability,NCI-H2347; first compound 2 µM,0.812
same,relative viability,NCI-H2347; first compound 6.325 µM,0.544
same,relative viability,NCI-H2347; first compound 20 µM,0.408
same,relative viability,NCI-H1395; first compound 0.2 µM,1.06
same,relative viability,NCI-H1395; first compound 0.6325 µM,1.1
same,relative viability,NCI-H1395; first compound 2 µM,1.63
same,relative viability,NCI-H1395; first compound 6.325 µM,0.646
same,relative viability,NCI-H1395; first compound 20 µM,0.425
same,relative viability,CAL-12T; first compound 0.2 µM,1.13
same,relative viability,CAL-12T; first compound 0.6325 µM,1.36
same,relative viability,CAL-12T; first compound 2 µM,1.15
same,relative viability,CAL-12T; first compound 6.325 µM,0.731
same,relative viability,CAL-12T; first compound 20 µM,0.945
same,relative viability,NCI-H2126; first compound 0.2 µM,0.898
same,relative viability,NCI-H2126; first compound 0.6325 µM,0.854
same,relative viability,NCI-H2126; first compound 2 µM,0.974
same,relative viability,NCI-H2126; first compound 6.325 µM,0.831
same,relative viability,NCI-H2126; first compound 20 µM,0.812
same,relative viability,SK-LU-1; first compound 0.2 µM,0.708
same,relative viability,SK-LU-1; first compound 0.6325 µM,0.78
same,relative viability,SK-LU-1; first compound 2 µM,0.957
same,relative viability,SK-LU-1; first compound 6.325 µM,0.824
same,relative viability,SK-LU-1; first compound 20 µM,0.841
same,relative viability,NCI-H1755; first compound 0.2 µM,1.01
same,relative viability,NCI-H1755; first compound 0.6325 µM,0.995
same,relative viability,NCI-H1755; first compound 2 µM,1.03
same,relative viability,NCI-H1755; first compound 6.325 µM,0.703
same,relative viability,NCI-H1755; first compound 20 µM,0.557
same,relative viability,NCI-H3122; first compound 0.2 µM,1.06
same,relative viability,NCI-H3122; first compound 0.6325 µM,1.09
same,relative viability,NCI-H3122; first compound 2 µM,1.1
same,relative viability,NCI-H3122; first compound 6.325 µM,0.761
same,relative viability,NCI-H3122; first compound 20 µM,0.426
same,relative viability,LXF-289; first compound 0.2 µM,0.921
same,relative viability,LXF-289; first compound 0.6325 µM,0.939
same,relative viability,LXF-289; first compound 2 µM,0.921
same,relative viability,LXF-289; first compound 6.325 µM,0.768
same,relative viability,LXF-289; first compound 20 µM,0.487
same,relative viability,HCC-44; first compound 0.2 µM,0.93
same,relative viability,HCC-44; first compound 0.6325 µM,1.01
same,relative viability,HCC-44; first compound 2 µM,0.74
same,relative viability,HCC-44; first compound 6.325 µM,0.612
same,relative viability,HCC-44; first compound 20 µM,0.277
